Reference: patent publication US4115541A (priority 1975, dated 1978)
Like-named read-outs stand apart in the source and are kept apart here.

Experiments:
[1] = rabbits i.v., ~1 mg/kg EHDP
[2] = Distribution of 99mTc-Sn-AEDP and 85Sr in rabbits, carrier effect of AEDP (Example 4); format: in vivo, rabbit; conditions: 2 Hrs.
Procedure: Adult New Zealand albino rabbits having an average weight of 3.8 kg were utilized. Strontium-85 was employed as a standard for comparison. […] Each dosage is contained in a volume of 1 ml.
The animals were sacrificed serially from 1 to 24 hours after injection and the activities in major organs were determined by counting multiple samples from each organ in a scintillation well counter (the technetium-99m counts were corrected for the Compton contributions from the strontium-85 activity in the technetium-99m energy window). Multiple samples were counted from the tibia, femur, spine and pelvic bones; the total activity in the skeleton was estimated by assuming the whole skeleton consisted of equal proportions by weight of tibia, spine, femur and pelvis and that the skeletal mass was 10% of the body weight. The red marrow was sampled from the femur and the total marrow was assumed to be 2.2% of the total body weight. Similarly, blood volume was assumed to be 7% and the skeletal muscle 43% of the body weight. The whole liver and both kidneys were weighed and multiple samples from each were counted to measure the total activity in each organ.
In another series of experiments carried out as described in Example 2, the distribution of technetium 99m from its 99m-technetium-tin-methylene diphosphonate complex was determined in albino rabbits, again in comparison with strontium-85.
The distribution of technetium 99m from its 99m technetium-tin-1-amino-ethane-1,1-diphosphonate complex was determined as in Example 3 and compared with the distribution of strontium-85.

[3] = rabbits, 2 Hrs.
[4] = physical; cited from earlier work
[5] = rabbits, 2 Hrs.; remark: listed apart in the source

[85Sr+2].[Cl-].[Cl-] [^85 Sr, 85Sr chloride, reference compound]
Blood, % dose/1% body weight ([1]; 1 Hr.): 1.70 % dose/1% body weight
Bone(Avg), % dose in whole organ ([1]; 1 Hr.): 56.0 % dose
Bone(Avg), % dose/1% body weight ([1]; 1 Hr.): 5.60 % dose/1% body weight
Femur, % dose/1% body weight ([1]; 1 Hr.): 4.90 % dose/1% body weight
Kidneys, % Dose in Whole Organ ([1]; 1 Hr.): 0.80 % dose
Kidneys, % dose/1% body weight ([1]; 1 Hr.): 1.75 % dose/1% body weight
Liver, % dose/1% body weight ([1]; 1 Hr.): 0.59 % dose/1% body weight
Marrow, % Dose in Whole Organ ([1]; 1 Hr.): 0.91 % dose
Marrow, % dose/1% body weight ([1]; 1 Hr.): 0.41 % dose/1% body weight
Muscle, % dose/1% body weight ([1]; 1 Hr.): 0.31 % dose/1% body weight
Pelvis, % dose/1% body weight ([1]; 1 Hr.): 7.07 % dose/1% body weight
Spine, % dose/1% body weight ([1]; 1 Hr.): 7.03 % dose/1% body weight
Tibia, % dose/1% body weight ([1]; 1 Hr.): 3.62 % dose/1% body weight
Blood, % dose/1% body weight ([1]; 2 Hrs): 1.01 % dose/1% body weight
Bone(Avg), % dose/1% body weight ([1]; 2 Hrs): 6.44 % dose/1% body weight
Femur, % dose/1% body weight ([1]; 2 Hrs): 5.74 % dose/1% body weight
Kidneys, % Dose in Whole Organ ([1]; 2 Hrs): 0.64 % dose
Kidneys, % dose/1% body weight ([1]; 2 Hrs): 1.40 % dose/1% body weight
Liver, % dose/1% body weight ([1]; 2 Hrs): 0.43 % dose/1% body weight
Marrow, % Dose in Whole Organ ([1]; 2 Hrs): 0.76 % dose
Marrow, % dose/1% body weight ([1]; 2 Hrs): 0.34 % dose/1% body weight
Muscle, % Dose in Whole Organ ([1]; 2 Hrs): 8.8 % dose
Muscle, % dose/1% body weight ([1]; 2 Hrs): 0.21 % dose/1% body weight
Pelvis, % dose/1% body weight ([1]; 2 Hrs): 7.70 % dose/1% body weight
Spine, % dose/1% body weight ([1]; 2 Hrs): 7.59 % dose/1% body weight
Tibia, % dose/1% body weight ([1]; 2 Hrs): 4.73 % dose/1% body weight
Urine, % Dose ([1]; 2 Hrs): 18.0 % dose
Blood, % dose/1% body weight ([1]; 4 Hrs): 0.55 % dose/1% body weight
Bone(Avg), % dose/1% body weight ([1]; 4 Hrs): 6.81 % dose/1% body weight
Femur, % dose/1% body weight ([1]; 4 Hrs): 6.17 % dose/1% body weight
Kidneys, % Dose in Whole Organ ([1]; 4 Hrs): 0.34 % dose
Kidneys, % dose/1% body weight ([1]; 4 Hrs): 0.71 % dose/1% body weight
Liver, % dose/1% body weight ([1]; 4 Hrs): 0.26 % dose/1% body weight
Marrow, % Dose in Whole Organ ([1]; 4 Hrs): 0.50 % dose
Marrow, % dose/1% body weight ([1]; 4 Hrs): 0.23 % dose/1% body weight
Muscle, % dose/1% body weight ([1]; 4 Hrs): 0.15 % dose/1% body weight
Pelvis, % dose/1% body weight ([1]; 4 Hrs): 8.02 % dose/1% body weight
Spine, % dose/1% body weight ([1]; 4 Hrs): 7.82 % dose/1% body weight
Tibia, % dose/1% body weight ([1]; 4 Hrs): 5.13 % dose/1% body weight
Blood, % Dose in Whole Organ ([1]; 24 Hrs): 0.29 % dose
Blood, % dose/1% body weight ([1]; 24 Hrs): 0.04 % dose/1% body weight
Bone(Avg), % dose/1% body weight ([1]; 24 Hrs): 5.21 % dose/1% body weight
Femur, % dose/1% body weight ([1]; 24 Hrs): 4.83 % dose/1% body weight
Kidneys, % Dose in Whole Organ ([1]; 24 Hrs): 0.03 % dose
Kidneys, % dose/1% body weight ([1]; 24 Hrs): 0.06 % dose/1% body weight
Liver, % dose/1% body weight ([1]; 24 Hrs): 0.02 % dose/1% body weight
Marrow, % Dose in Whole Organ ([1]; 24 Hrs): 0.10 % dose
Marrow, % dose/1% body weight ([1]; 24 Hrs): 0.05 % dose/1% body weight
Muscle, % Dose in Whole Organ ([1]; 24 Hrs): 1.00 % dose
Pelvis, % dose/1% body weight ([1]; 24 Hrs): 5.26 % dose/1% body weight
Spine, % dose/1% body weight ([1]; 24 Hrs): 6.47 % dose/1% body weight
Tibia, % dose/1% body weight ([1]; 24 Hrs): 4.27 % dose/1% body weight
Blood, % Dose in Whole Organ ([2]; AEDP 0.05 mg/kg): 2.50 % Dose
Liver, % Dose in Whole Organ ([2]; AEDP 0.5 mg/kg): 0.720 % Dose
Ave Bone, % Dose/1% body weight ([3]; MDP 0.01 mg/kg): 11.85 % Dose/1% body weight
Blood, % dose/1% body weight ([3]; MDP 0.01 mg/kg): 0.47 % Dose/1% body weight
Femur, % dose/1% body weight ([3]; MDP 0.01 mg/kg): 13.93 % Dose/1% body weight
Kidneys, % Dose in Whole Organ ([3]; MDP 0.01 mg/kg): 0.34 % Dose
Kidneys, % dose/1% body weight ([3]; MDP 0.01 mg/kg): 0.54 % Dose/1% body weight
Liver, % Dose in Whole Organ ([3]; MDP 0.01 mg/kg): 0.65 % Dose
Liver, % dose/1% body weight ([3]; MDP 0.01 mg/kg): 0.16 % Dose/1% body weight
Marrow, % Dose in Whole Organ ([3]; MDP 0.01 mg/kg): 0.53 % Dose
Marrow, % dose/1% body weight ([3]; MDP 0.01 mg/kg): 0.24 % Dose/1% body weight
Muscle, % dose/1% body weight ([3]; MDP 0.01 mg/kg): 0.13 % Dose/1% body weight
Pelvis, % dose/1% body weight ([3]; MDP 0.01 mg/kg): 13.55 % Dose/1% body weight
Spine, % dose/1% body weight ([3]; MDP 0.01 mg/kg): 12.78 % Dose/1% body weight
Tibia, % dose/1% body weight ([3]; MDP 0.01 mg/kg): 7.14 % Dose/1% body weight
Ave Bone, % Dose/1% body weight ([3]; MDP 0.05 mg/kg): 7.29 % Dose/1% body weight
Blood, % dose/1% body weight ([3]; MDP 0.05 mg/kg): 0.52 % Dose/1% body weight
Femur, % dose/1% body weight ([3]; MDP 0.05 mg/kg): 9.10 % Dose/1% body weight
Kidneys, % Dose in Whole Organ ([3]; MDP 0.05 mg/kg): 0.46 % Dose
Kidneys, % dose/1% body weight ([3]; MDP 0.05 mg/kg): 0.9 % Dose/1% body weight
Liver, % Dose in Whole Organ ([3]; MDP 0.05 mg/kg): 0.71 % Dose
Liver, % dose/1% body weight ([3]; MDP 0.05 mg/kg): 0.22 % Dose/1% body weight
Marrow, % Dose in Whole Organ ([3]; MDP 0.05 mg/kg): 0.53 % Dose
Marrow, % dose/1% body weight ([3]; MDP 0.05 mg/kg): 0.24 % Dose/1% body weight
Muscle, % dose/1% body weight ([3]; MDP 0.05 mg/kg): 0.14 % Dose/1% body weight
Pelvis, % dose/1% body weight ([3]; MDP 0.05 mg/kg): 8.33 % Dose/1% body weight
Spine, % dose/1% body weight ([3]; MDP 0.05 mg/kg): 6.75 % Dose/1% body weight
Tibia, % dose/1% body weight ([3]; MDP 0.05 mg/kg): 4.94 % Dose/1% body weight
Ave Bone, % Dose/1% body weight ([3]; MDP 0.1 mg/kg): 9.17 % Dose/1% body weight
Blood, % dose/1% body weight ([3]; MDP 0.1 mg/kg): 0.56 % Dose/1% body weight
Femur, % dose/1% body weight ([3]; MDP 0.1 mg/kg): 10.0 % Dose/1% body weight
Kidneys, % Dose in Whole Organ ([3]; MDP 0.1 mg/kg): 0.66 % Dose
Kidneys, % dose/1% body weight ([3]; MDP 0.1 mg/kg): 1.00 % Dose/1% body weight
Liver, % dose/1% body weight ([3]; MDP 0.1 mg/kg): 0.30 % Dose/1% body weight
Marrow, % Dose in Whole Organ ([3]; MDP 0.1 mg/kg): 0.57 % Dose
Marrow, % dose/1% body weight ([3]; MDP 0.1 mg/kg): 0.26 % Dose/1% body weight
Muscle, % dose/1% body weight ([3]; MDP 0.1 mg/kg): 0.22 % Dose/1% body weight
One femur, % dose in whole organ ([3]; MDP 0.1 mg/kg): 2.80 % Dose
Pelvis, % dose/1% body weight ([3]; MDP 0.1 mg/kg): 12.2 % Dose/1% body weight
Spine, % dose/1% body weight ([3]; MDP 0.1 mg/kg): 8.45 % Dose/1% body weight
Tibia, % dose/1% body weight ([3]; MDP 0.1 mg/kg): 6.05 % Dose/1% body weight
Ave Bone, % Dose/1% body weight ([3]; MDP 0.5 mg/kg): 8.77 % Dose/1% body weight
Blood, % dose/1% body weight ([3]; MDP 0.5 mg/kg): 0.45 % Dose/1% body weight
Femur, % dose/1% body weight ([3]; MDP 0.5 mg/kg): 11.32 % Dose/1% body weight
Kidneys, % Dose in Whole Organ ([3]; MDP 0.5 mg/kg): 0.45 % Dose
Kidneys, % dose/1% body weight ([3]; MDP 0.5 mg/kg): 0.69 % Dose/1% body weight
Liver, % Dose in Whole Organ ([3]; MDP 0.5 mg/kg): 0.69 % Dose
Liver, % dose/1% body weight ([3]; MDP 0.5 mg/kg): 0.23 % Dose/1% body weight
Marrow, % Dose in Whole Organ ([3]; MDP 0.5 mg/kg): 0.67 % Dose
Marrow, % dose/1% body weight ([3]; MDP 0.5 mg/kg): 0.30 % Dose/1% body weight
Muscle, % dose/1% body weight ([3]; MDP 0.5 mg/kg): 0.13 % Dose/1% body weight
Pelvis, % dose/1% body weight ([3]; MDP 0.5 mg/kg): 8.68 % Dose/1% body weight
Spine, % dose/1% body weight ([3]; MDP 0.5 mg/kg): 8.92 % Dose/1% body weight
Tibia, % dose/1% body weight ([3]; MDP 0.5 mg/kg): 6.16 % Dose/1% body weight
half-life (radionuclide) [4]: 65 days
Kidneys, % Dose in Whole Organ ([5]; EHDP 0.01 mg/kg): 0.43 % Dose
Liver, % Dose in Whole Organ ([5]; EHDP 0.01 mg/kg): 0.74 % Dose
Marrow, % Dose in Whole Organ ([5]; EHDP 0.01 mg/kg): 0.42 % Dose
One Tibia, % Dose in Whole Organ ([5]; EHDP 0.01 mg/kg): 2.60 % Dose
Kidneys, % Dose in Whole Organ ([5]; EHDP 0.05 mg/kg): 0.46 % Dose
Liver, % Dose in Whole Organ ([5]; EHDP 0.05 mg/kg): 0.77 % Dose
Marrow, % Dose in Whole Organ ([5]; EHDP 0.05 mg/kg): 0.61 % Dose
Blood, % Dose in Whole Organ ([5]; EHDP 0.1 mg/kg): 3.10 % Dose
Kidneys, % Dose in Whole Organ ([5]; EHDP 0.1 mg/kg): 0.30 % Dose
Liver, % Dose in Whole Organ ([5]; EHDP 0.1 mg/kg): 0.64 % Dose
Marrow, % Dose in Whole Organ ([5]; EHDP 0.1 mg/kg): 0.43 % Dose
Muscle, % Dose in Whole Organ ([5]; EHDP 0.1 mg/kg): 5.0 % Dose
Kidneys, % Dose in Whole Organ ([5]; EHDP 0.5 mg/kg): 0.48 % Dose
Liver, % Dose in Whole Organ ([5]; EHDP 0.5 mg/kg): 0.76 % Dose
Marrow, % Dose in Whole Organ ([5]; EHDP 0.5 mg/kg): 0.34 % Dose
Urine, % Dose ([5]; EHDP 0.5 mg/kg): 19.67 % Dose
